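Briefly, cells in 96-well plates were exposed to five compound concentrations for 48 h, and endpoints were estimated by linear interpolation. GI50 marks 50% less growth. The concentration for full growth arrest is given as TGI.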
Experiments:
Experiment in all cases: growth of human tumour cells (NCI), 48 h
786-0 renal = tested on: 786-0 renal
HOP-92 NSCLC = tested on: HOP-92 NSCLC
OVCAR-5 ovarian = tested on: OVCAR-5 ovarian
NCI-H460 lung = tested on: NCI-H460 lung
MALME-3M melanoma = tested on: MALME-3M melanoma
A498 renal = tested on: A498 renal
T-47D breast = tested on: T-47D breast
M14 melanoma = tested on: M14 melanoma
MCF7 breast = tested on: MCF7 breast
HOP-62 NSCLC = tested on: HOP-62 NSCLC
U251 CNS = tested on: U251 CNS
KM12 colon = tested on: KM12 colon
OVCAR-4 ovarian = tested on: OVCAR-4 ovarian
NCI-H226 lung = tested on: NCI-H226 lung
RPMI-8226 leukemia = tested on: RPMI-8226 leukemia
SF-295 CNS = tested on: SF-295 CNS
SF-268 CNS = tested on: SF-268 CNS
MOLT-4 leukemia = tested on: MOLT-4 leukemia
NCI-H522 lung = tested on: NCI-H522 lung
UO-31 renal = tested on: UO-31 renal
SN12C renal = tested on: SN12C renal
HL-60(TB) leukemia = tested on: HL-60(TB) leukemia
SW-620 colon = tested on: SW-620 colon
HCC-2998 colon = tested on: HCC-2998 colon
COLO 205 colon = tested on: COLO 205 colon
OVCAR-8 ovarian = tested on: OVCAR-8 ovarian
NCI-H23 lung = tested on: NCI-H23 lung
SNB-75 CNS = tested on: SNB-75 CNS
PC-3 prostate = tested on: PC-3 prostate
LOX IMVI melanoma = tested on: LOX IMVI melanoma
UACC-257 melanoma = tested on: UACC-257 melanoma
IGROV1 ovarian = tested on: IGROV1 ovarian
RXF 393 renal = tested on: RXF 393 renal
CAKI-1 renal = tested on: CAKI-1 renal
SK-MEL-28 melanoma = tested on: SK-MEL-28 melanoma
UACC-62 melanoma = tested on: UACC-62 melanoma
SK-MEL-2 melanoma = tested on: SK-MEL-2 melanoma
BT-549 breast = tested on: BT-549 breast
TK-10 renal = tested on: TK-10 renal
SK-OV-3 ovarian = tested on: SK-OV-3 ovarian
MDA-MB-435 = tested on: MDA-MB-435
EKVX NSCLC = tested on: EKVX NSCLC
MDA-MB-231 breast = tested on: MDA-MB-231 breast
SR leukemia = tested on: SR leukemia
NCI/ADR-RES ovarian = tested on: NCI/ADR-RES ovarian
HT29 colon = tested on: HT29 colon
ACHN renal = tested on: ACHN renal
HCT-116 colon = tested on: HCT-116 colon
DU-145 prostate = tested on: DU-145 prostate
A549 NSCLC = tested on: A549 NSCLC
SF-539 CNS = tested on: SF-539 CNS
HCT-15 colon = tested on: HCT-15 colon
HS 578T breast = tested on: HS 578T breast
SK-MEL-5 melanoma = tested on: SK-MEL-5 melanoma
CCRF-CEM leukemia = tested on: CCRF-CEM leukemia
K-562 leukemia = tested on: K-562 leukemia
SNB-19 CNS = tested on: SNB-19 CNS

`CNC(=O)c1cc(Oc2ccc3c(c2)sc2nc(-c4ccc(N(C)C)cc4)cn23)ccn1` was tested. Which GI50 (786-0 renal) did it give?
The GI50 was 291 nM.

And the TGI (786-0 renal)?
Its TGI is over 18100 nM.

And the GI50 (HOP-92 NSCLC)?
The GI50 was 260 nM.

What about the TGI (HOP-92 NSCLC) of the same molecule?
Its TGI is over 30300 nM.

What about the GI50 (OVCAR-5 ovarian) of the same molecule?
Its GI50 is 659 nM.

And the TGI (OVCAR-5 ovarian)?
The TGI was over 50000 nM.

What about the GI50 (NCI-H460 lung) of the same molecule?
The GI50 was 206 nM.

What about the TGI (NCI-H460 lung) of the same molecule?
Its TGI is over 50000 nM.

And the GI50 (MALME-3M melanoma)?
Its GI50 is 291 nM.

And the TGI (MALME-3M melanoma)?
The TGI was over 50000 nM.

What about the GI50 (A498 renal) of the same molecule?
The GI50 was 140 nM.

And the TGI (A498 renal)?
The TGI was 831 nM.

And the GI50 (T-47D breast)?
Its GI50 is 271 nM.

What about the TGI (T-47D breast) of the same molecule?
The TGI was over 50000 nM.

And the GI50 (M14 melanoma)?
The GI50 was 193 nM.

And the TGI (M14 melanoma)?
Its TGI is over 50000 nM.

What about the GI50 (MCF7 breast) of the same molecule?
The GI50 was 167 nM.

What about the TGI (MCF7 breast) of the same molecule?
The TGI was over 50000 nM.

And the GI50 (HOP-62 NSCLC)?
Its GI50 is 319 nM.

What about the TGI (HOP-62 NSCLC) of the same molecule?
Its TGI is over 50000 nM.

What about the GI50 (U251 CNS) of the same molecule?
Its GI50 is 210 nM.

What about the TGI (U251 CNS) of the same molecule?
Its TGI is 6370 nM.

And the GI50 (KM12 colon)?
Its GI50 is 241 nM.

What about the TGI (KM12 colon) of the same molecule?
Its TGI is over 50000 nM.

And the TGI (OVCAR-4 ovarian)?
The TGI was over 50000 nM.

And the GI50 (NCI-H226 lung)?
Its GI50 is 390 nM.

What about the TGI (NCI-H226 lung) of the same molecule?
The TGI was over 50000 nM.

And the GI50 (RPMI-8226 leukemia)?
The GI50 was 329 nM.

And the TGI (RPMI-8226 leukemia)?
Its TGI is over 50000 nM.

What about the GI50 (SF-295 CNS) of the same molecule?
Its GI50 is 160 nM.

And the TGI (SF-295 CNS)?
Its TGI is 1150 nM.

And the GI50 (SF-268 CNS)?
Its GI50 is 854 nM.

And the TGI (SF-268 CNS)?
The TGI was over 50000 nM.

What about the GI50 (MOLT-4 leukemia) of the same molecule?
Its GI50 is 213 nM.

And the TGI (MOLT-4 leukemia)?
Its TGI is over 50000 nM.

What about the GI50 (NCI-H522 lung) of the same molecule?
The GI50 was 146 nM.

And the TGI (NCI-H522 lung)?
The TGI was 740 nM.

What about the GI50 (UO-31 renal) of the same molecule?
Its GI50 is 289 nM.

And the TGI (UO-31 renal)?
Its TGI is over 50000 nM.

What about the GI50 (SN12C renal) of the same molecule?
Its GI50 is 282 nM.

What about the TGI (SN12C renal) of the same molecule?
The TGI was over 50000 nM.

And the GI50 (HL-60(TB) leukemia)?
Its GI50 is 134 nM.

What about the TGI (HL-60(TB) leukemia) of the same molecule?
The TGI was 3480 nM.

What about the GI50 (SW-620 colon) of the same molecule?
Its GI50 is 226 nM.

What about the TGI (SW-620 colon) of the same molecule?
Its TGI is over 50000 nM.

What about the GI50 (HCC-2998 colon) of the same molecule?
Its GI50 is 836 nM.

What about the TGI (HCC-2998 colon) of the same molecule?
Its TGI is over 13400 nM.

And the GI50 (COLO 205 colon)?
The GI50 was 260 nM.

What about the TGI (COLO 205 colon) of the same molecule?
Its TGI is 1960 nM.

And the GI50 (OVCAR-8 ovarian)?
Its GI50 is 355 nM.

What about the TGI (OVCAR-8 ovarian) of the same molecule?
Its TGI is 2600 nM.

And the GI50 (NCI-H23 lung)?
Its GI50 is 614 nM.

What about the TGI (NCI-H23 lung) of the same molecule?
The TGI was over 50000 nM.

And the GI50 (SNB-75 CNS)?
The GI50 was 123 nM.

And the TGI (SNB-75 CNS)?
The TGI was 398 nM.

And the GI50 (PC-3 prostate)?
The GI50 was 225 nM.

And the TGI (PC-3 prostate)?
The TGI was over 50000 nM.

What about the GI50 (LOX IMVI melanoma) of the same molecule?
The GI50 was 474 nM.

And the TGI (LOX IMVI melanoma)?
Its TGI is 1770 nM.

And the GI50 (UACC-257 melanoma)?
Its GI50 is 19600 nM.

And the TGI (UACC-257 melanoma)?
The TGI was over 50000 nM.

And the GI50 (IGROV1 ovarian)?
The GI50 was 292 nM.

What about the TGI (IGROV1 ovarian) of the same molecule?
Its TGI is over 50000 nM.

What about the GI50 (RXF 393 renal) of the same molecule?
Its GI50 is 128 nM.

What about the TGI (RXF 393 renal) of the same molecule?
Its TGI is 440 nM.

And the GI50 (CAKI-1 renal)?
The GI50 was 291 nM.

And the TGI (CAKI-1 renal)?
Its TGI is over 50000 nM.

What about the GI50 (SK-MEL-28 melanoma) of the same molecule?
Its GI50 is 1740 nM.

What about the TGI (SK-MEL-28 melanoma) of the same molecule?
The TGI was over 50000 nM.

And the GI50 (UACC-62 melanoma)?
Its GI50 is 170 nM.

And the TGI (UACC-62 melanoma)?
Its TGI is over 50000 nM.

What about the GI50 (SK-MEL-2 melanoma) of the same molecule?
The GI50 was 496 nM.

What about the TGI (SK-MEL-2 melanoma) of the same molecule?
The TGI was over 10500 nM.

What about the GI50 (BT-549 breast) of the same molecule?
The GI50 was 208 nM.

And the TGI (BT-549 breast)?
Its TGI is 31400 nM.

And the GI50 (TK-10 renal)?
The GI50 was 3720 nM.

What about the TGI (TK-10 renal) of the same molecule?
Its TGI is over 50000 nM.

What about the GI50 (SK-OV-3 ovarian) of the same molecule?
Its GI50 is 273 nM.

And the TGI (SK-OV-3 ovarian)?
The TGI was over 50000 nM.

And the GI50 (MDA-MB-435)?
The GI50 was 94 nM.

What about the TGI (MDA-MB-435) of the same molecule?
Its TGI is 237 nM.

What about the GI50 (EKVX NSCLC) of the same molecule?
Its GI50 is 1980 nM.

What about the TGI (EKVX NSCLC) of the same molecule?
The TGI was over 50000 nM.

And the GI50 (MDA-MB-231 breast)?
The GI50 was 438 nM.

And the TGI (MDA-MB-231 breast)?
The TGI was over 37000 nM.

And the GI50 (SR leukemia)?
The GI50 was 114 nM.

What about the TGI (SR leukemia) of the same molecule?
Its TGI is over 50000 nM.

And the GI50 (NCI/ADR-RES ovarian)?
Its GI50 is 186 nM.

And the TGI (NCI/ADR-RES ovarian)?
The TGI was over 50000 nM.

What about the GI50 (HT29 colon) of the same molecule?
Its GI50 is 177 nM.

And the TGI (HT29 colon)?
The TGI was 739 nM.

What about the GI50 (ACHN renal) of the same molecule?
The GI50 was 303 nM.

And the TGI (ACHN renal)?
Its TGI is over 50000 nM.

What about the GI50 (HCT-116 colon) of the same molecule?
The GI50 was 241 nM.

What about the TGI (HCT-116 colon) of the same molecule?
The TGI was over 50000 nM.

What about the GI50 (DU-145 prostate) of the same molecule?
The GI50 was 451 nM.

What about the TGI (DU-145 prostate) of the same molecule?
The TGI was over 50000 nM.

What about the GI50 (A549 NSCLC) of the same molecule?
Its GI50 is 409 nM.

What about the TGI (A549 NSCLC) of the same molecule?
The TGI was over 50000 nM.

And the GI50 (SF-539 CNS)?
The GI50 was 178 nM.

And the TGI (SF-539 CNS)?
Its TGI is 1280 nM.

What about the GI50 (HCT-15 colon) of the same molecule?
Its GI50 is 202 nM.

What about the TGI (HCT-15 colon) of the same molecule?
Its TGI is over 50000 nM.

What about the GI50 (HS 578T breast) of the same molecule?
The GI50 was 219 nM.

What about the TGI (HS 578T breast) of the same molecule?
Its TGI is over 44100 nM.

What about the GI50 (SK-MEL-5 melanoma) of the same molecule?
The GI50 was 206 nM.

What about the TGI (SK-MEL-5 melanoma) of the same molecule?
Its TGI is 2110 nM.

What about the GI50 (CCRF-CEM leukemia) of the same molecule?
The GI50 was 197 nM.

And the TGI (CCRF-CEM leukemia)?
Its TGI is over 50000 nM.

And the GI50 (K-562 leukemia)?
Its GI50 is 152 nM.

And the TGI (K-562 leukemia)?
The TGI was over 50000 nM.

What about the GI50 (SNB-19 CNS) of the same molecule?
Its GI50 is 251 nM.

What about the TGI (SNB-19 CNS) of the same molecule?
The TGI was over 50000 nM.
